The values that follow are results of earlier work, collected in patent US20250275935A1, “COMPOSITIONS AND METHODS FOR TREATING PATIENTS WITH DEMENTIA DUE TO ALZHEIMER'S DISEASE WITH A COMBINATION OF THC AND MELATONIN” (IGC Pharma IP, LLC, priority 2021, published 2025).

Data set [1] deals with mice. The note with it: THC 3 mg/kg bodyweight per day, four weeks.
The conditions of data set [2]: 4.5 mg/day THC.
The test system of data set [3] is patient having severe Alzheimer's disease. The note with it: 4.9-6.7 mg dronabinol with 10 mg donepezil and 50 mg sertraline daily; decreased from 20.
For data set [4] the following is noted: general statement, no test described.

For the compound `CCCCCc1cc(O)c2c(c1)OC(C)(C)[C@@H]1CCC(C)=C[C@@H]21` [THC, Tetrahydrocannabinol], the “cognitive performance (learning and memory)” value in data set [1] (mature (12 months) and old (18 months) mice) was “cognitive deficits in learning and memory were erased”. Moreover, in data set [1] (young mice (2 month)), the cognitive performance entry was “performed worse than the control group of young mice”. Further, the “agitation or reduction from baseline of NPI total score versus placebo” value in data set [2] is recorded as “No differences were shown”.
As to `CCCCCc1cc(O)c2c(c1)OC(C)(C)[C@@H]1CCC(C)=C[C@@H]21` [dronabinol], the NPI total score in data set [3] is 15.
Consider `COc1cc(/C=C/C(=O)CC(=O)/C=C/c2ccc(O)c(OC)c2)ccc1O` [curcumin], for which the solubility in water entry in data set [4] was “only poorly soluble in water”.
For `C[C@@H]1O[C@@H](OC[C@H]2O[C@@H](Oc3c(-c4ccc(O)c(O)c4)oc4cc(O)cc(O)c4c3=O)[C@H](O)[C@@H](O)[C@@H]2O)[C@H](O)[C@H](O)[C@H]1O` [rutin], the solubility in water entry in data set [4] is reported as “only poorly soluble in water”.
As to `COc1ccc2[nH]cc(CCNC(C)=O)c2c1` [Melatonin, N-acetyl-5-methoxytryptamine], the solubility in water entry in data set [4] is on record as “typically insoluble in water”.
